Earlier results in patent publication US20260130963A1, “COMPOSITIONS COMPRISING RED YEAST RICE” (Meda Pharma S.p.A., priority 2021, published 2026).
≈ marks a conversion by molar mass, not a printed value.

Tests used:
[1] = in vivo
[2] = “low solubility/high permeability”

In the case of `CC[C@H](C)C(=O)O[C@H]1C[C@@H](C)C=C2C=C[C@H](C)[C@H](CC[C@@H]3C[C@@H](O)CC(=O)O3)[C@H]21` [Lovastatin], the water solubility is listed as 0.4 µg/mL (≈ 0.989 µM), the half-life [1] is listed as 1 to 2 h and the BCS classification [2] is listed as “BCS Class II”.
